{
  "source": "patent US20240366598A1",
  "about": "“GLUCOSE-DEPENDENT INSULINOTROPIC POLYPEPTIDE RECEPTOR ANTAGONISTS AND USES THEREOF” (Pfizer Inc., priority 2023, published 2024)",
  "molecular_target": "T1, human Glucose-dependent Insulinotropic Polypeptide Receptor (hGIPR) (Homo sapiens, UniProt P48546)",
  "T1 sequence (P48546 22-466)": "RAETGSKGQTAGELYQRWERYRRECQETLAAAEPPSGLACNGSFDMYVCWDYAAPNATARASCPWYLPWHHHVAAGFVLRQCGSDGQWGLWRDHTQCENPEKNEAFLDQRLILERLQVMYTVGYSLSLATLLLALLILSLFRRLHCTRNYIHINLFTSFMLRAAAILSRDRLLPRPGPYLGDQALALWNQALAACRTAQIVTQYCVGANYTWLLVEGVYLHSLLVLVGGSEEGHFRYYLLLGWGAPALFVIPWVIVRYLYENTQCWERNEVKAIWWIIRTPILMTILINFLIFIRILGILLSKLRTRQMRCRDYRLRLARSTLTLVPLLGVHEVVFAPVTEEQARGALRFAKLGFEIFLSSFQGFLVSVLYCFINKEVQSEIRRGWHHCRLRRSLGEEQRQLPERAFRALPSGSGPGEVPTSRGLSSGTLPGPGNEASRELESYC",
  "test": "Functional in vitro GIPR antagonist potency assay (cAMP HTRF, CHO-K1 cells stably expressing hGIPR, hGIP stimulation at about EC80)",
  "format": "cell-based",
  "settings": "geometric mean, hGIP at estimated EC80, examples marked ^2: overall geometric mean of multiple forms (including salts) tested",
  "procedure,_shortened": "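CHO-K1 cells expressing hGIPR (2,000 per well) in HBSS/HEPES/0.1% BSA with 200 μM IBMX were preincubated 2 h at 37 °C with an 11-point compound series (0.5% DMSO). hGIP at about EC80 was then added for 30 min, and cAMP was read by HTRF (665/620 nm). Data were normalized between hGIP alone and full antagonism by a reference antagonist at 80 μM.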",
  "data": [
    {"compound": "CC(C)c1ccc(NC(=O)N2CCC[C@@H]2C(=O)Nc2ccc(-c3cc(Cl)c(C(=O)O)cc3F)cc2)cc1", "note": "[Example 98, 5-chloro-2-fluoro-4′-[(1-{[4-(propan-2-yl)phenyl]carbamoyl}-D-prolyl)amino][1,1′-biphenyl]-4-carboxylic acid]", "values": [
      {"measurement": "IC50", "result": 0.03, "unit": "µM"}
    ]},
    {"compound": "CC(C)c1ccc(NC(=O)N2CCC[C@@H]2C(=O)Nc2ccc(-c3cc(F)c(O)c(F)c3)cc2)cc1", "note": "[Example 99, (2R)-N^2-(3′,5′-difluoro-4′-hydroxy[1,1′-biphenyl]-4-yl)-N^1-[4-(propan-2-yl)phenyl]pyrrolidine-1,2-dicarboxamide]", "values": [
      {"measurement": "IC50", "result": 0.018, "unit": "µM"}
    ]},
    {"compound": "CC(C)c1ccc(NC(=O)N2CCC[C@@H]2C(=O)Nc2ccc(-c3ccc(O)c(C#N)c3)cc2)cc1", "note": "[Example 100, (2R)-N^2-(3′-cyano-4′-hydroxy[1,1′-biphenyl]-4-yl)-N^1-[4-(propan-2-yl)phenyl]pyrrolidine-1,2-dicarboxamide]", "values": [
      {"measurement": "IC50", "result": 0.027, "unit": "µM"}
    ]},
    {"compound": "O=C(O)c1ccc(-c2ccc(NC(=O)[C@H]3CCCN3C(=O)Nc3cnc(C(F)(F)F)nc3)cc2)cc1", "note": "[Example 101, 4′-[(1-{[2-(trifluoromethyl)pyrimidin-5-yl]carbamoyl}-D-prolyl)amino][1,1′-biphenyl]-4-carboxylic acid]", "values": [
      {"measurement": "IC50", "result": 0.092, "unit": "µM"}
    ]},
    {"compound": "Cc1nc(NC(=O)N2CCC[C@@H]2C(=O)Nc2ccc(-c3ccc(C(=O)O)cc3)cc2)ccc1C(C)C", "note": "[Example 102, 4′-[(1-{[6-methyl-5-(propan-2-yl)pyridin-2-yl]carbamoyl}-D-prolyl)amino][1,1′-biphenyl]-4-carboxylic acid]", "values": [
      {"measurement": "IC50", "result": 0.69, "unit": "µM"}
    ]},
    {"compound": "O=C(O)c1ccc(-c2ccc(NC(=O)[C@H]3CCCN3C(=O)Nc3ccc(Cl)cc3Cl)cc2)cc1", "note": "[Example 103, 4′-({1-[(2,4-dichlorophenyl)carbamoyl]-D-prolyl}amino)[1,1′-biphenyl]-4-carboxylic acid]", "values": [
      {"measurement": "IC50", "result": 0.029, "unit": "µM"}
    ]},
    {"compound": "CC(C)c1ccc(NC(=O)N2C[C@H]3C[C@H]3[C@@H]2C(=O)Nc2ccc(-c3ccc(C(=O)O)cc3)cc2)cc1", "note": "[Example 104, 4′-{[(1R,2R,5S)-3-{[4-(propan-2-yl)phenyl]carbamoyl}-3-azabicyclo[3.1.0]hexane-2-carbonyl]amino}[1,1′-biphenyl]-4-carboxylic acid]", "values": [
      {"measurement": "IC50", "result": 0.0029, "unit": "µM"}
    ]},
    {"compound": "CC(C)c1ccc(NC(=O)N2C[C@@H]3C[C@@H]3[C@@H]2C(=O)Nc2ccc(-c3ccc(C(=O)O)cc3)cc2)cc1", "note": "[Example 105, 4′-{[(1S,2R,5R)-3-{[4-(propan-2-yl)phenyl]carbamoyl}-3-azabicyclo[3.1.0]hexane-2-carbonyl]amino}[1,1′-biphenyl]-4-carboxylic acid]", "values": [
      {"measurement": "IC50", "result": 0.0088, "unit": "µM"}
    ]},
    {"compound": "Cc1cc(NC(=O)N2CCC[C@@H]2C(=O)Nc2ccc(-c3ccc(C(=O)O)cc3)cc2)ccc1C(F)(F)F", "note": "[Example 106, 4′-[(1-{[3-methyl-4-(trifluoromethyl)phenyl]carbamoyl}-D-prolyl)amino][1,1′-biphenyl]-4-carboxylic acid]", "values": [
      {"measurement": "IC50", "result": 0.003, "unit": "µM"}
    ]},
    {"compound": "N#Cc1cc(CNC(=O)N2CCC[C@@H]2C(=O)Nc2ccc(-c3ccc(C(=O)O)cc3)cc2)ccc1Cl", "note": "[Example 107, 4′-[(1-{[(4-chloro-3-cyanophenyl)methyl]carbamoyl}-D-prolyl)amino][1,1′-biphenyl]-4-carboxylic acid]", "values": [
      {"measurement": "IC50", "result": 0.72, "unit": "µM"}
    ]},
    {"compound": "O=C(O)c1ccc(-c2ccc(NC(=O)[C@H]3CCCN3C(=O)NCc3cnc(C(F)(F)F)nc3)cc2)cc1", "note": "[Example 108, 4′-{[1-({[2-(trifluoromethyl)pyrimidin-5-yl]methyl}carbamoyl)-D-prolyl]amino}[1,1′-biphenyl]-4-carboxylic acid]", "values": [
      {"measurement": "IC50", "result": 0.26, "unit": "µM"}
    ]},
    {"compound": "CC(C)c1ccc(CNC(=O)N2CCC[C@@H]2C(=O)Nc2ccc(-c3ccc(C(=O)O)cc3)cc2)cc1", "note": "[Example 109, 4′-{[1-{{[4-(propan-2-yl)phenyl]methyl}carbamoyl)-D-prolyl]amino}[1,1′-biphenyl]-4-carboxylic acid]", "values": [
      {"measurement": "IC50", "result": 0.0051, "unit": "µM"}
    ]},
    {"compound": "O=C(O)c1ccc(-c2ccc(NC(=O)[C@H]3CCCN3C(=O)Nc3ccc(Cl)c(C(F)(F)F)c3)cc2)cc1", "note": "[Example 110, 4′-[(1-{[4-chloro-3-(trifluoromethyl)phenyl]carbamoyl}-D-prolyl)amino][1,1′-biphenyl]-4-carboxylic acid]", "values": [
      {"measurement": "IC50", "result": 0.0037, "unit": "µM"}
    ]},
    {"compound": "CCC(C)c1ccc(NC(=O)N2CCC[C@@H]2C(=O)Nc2ccc(-c3ccc(C(=O)O)cc3)cc2)cc1", "note": "(stereo partly drawn) [Example 111, 4′-[(1-{[4-(butan-2-yl)phenyl]carbamoyl}-D-prolyl)amino][1,1′-biphenyl]-4-carboxylic acid]", "values": [
      {"measurement": "IC50", "result": 0.011, "unit": "µM"}
    ]},
    {"compound": "CC(C)c1ncc(NC(=O)N2CCC[C@@H]2C(=O)Nc2ccc(-c3ccc(C(=O)O)cc3)cc2)cn1", "note": "[Example 112, 4′-[(1-{[2-(propan-2-yl)pyrimidin-5-yl]carbamoyl}-D-prolyl)amino][1,1′-biphenyl]-4-carboxylic acid]", "values": [
      {"measurement": "IC50", "result": 0.84, "unit": "µM"}
    ]},
    {"compound": "O=C(O)c1ccc(-c2ccc(NC(=O)[C@H]3CCCN3C(=O)NCc3cc(Cl)cc(Cl)c3)cc2)cc1", "note": "[Example 113, 4′-[(1-{[(3,5-dichlorophenyl)methyl]carbamoyl}-D-prolyl)amino][1,1′-biphenyl]-4-carboxylic acid]", "values": [
      {"measurement": "IC50", "result": 0.021, "unit": "µM"}
    ]},
    {"compound": "O=C(O)c1ccc(-c2ccc(NC(=O)[C@H]3CCCN3C(=O)Nc3ccc(C4CCCCC4)cc3)cc2)cc1", "note": "[Example 114, 4′-({1-[(4-cyclohexylphenyl)carbamoyl]-D-prolyl}amino)[1,1′-biphenyl]-4-carboxylic acid]", "values": [
      {"measurement": "IC50", "result": 0.04, "unit": "µM"}
    ]},
    {"compound": "O=C(O)c1ccc(-c2ccc(NC(=O)[C@H]3CCCN3C(=O)Nc3ccc(C4CCCC4)cc3)cc2)cc1", "note": "[Example 115, 4′-({1-[(4-cyclopentylphenyl)carbamoyl]-D-prolyl}amino)[1,1′-biphenyl]-4-carboxylic acid]", "values": [
      {"measurement": "IC50", "result": 0.0048, "unit": "µM"}
    ]},
    {"compound": "O=C(O)c1ccc(-c2ccc(NC(=O)[C@H]3CCCN3C(=O)NCc3ccc(Cl)c(Cl)c3)cc2)cc1", "note": "[Example 116, 4′-[(1-{[(3,4-dichlorophenyl)methyl]carbamoyl}-D-prolyl)amino][1,1′-biphenyl]-4-carboxylic acid]", "values": [
      {"measurement": "IC50", "result": 0.012, "unit": "µM"}
    ]},
    {"compound": "CC(C)c1ccc(NC(=O)N2CCC[C@@H]2C(=O)Nc2ccc(-c3ccc(C(=O)O)cc3)cc2)c(F)c1", "note": "[Example 117, 4′-[(1-{[2-fluoro-4-(propan-2-yl)phenyl]carbamoyl}-D-prolyl)amino][1,1′-biphenyl]-4-carboxylic acid]", "values": [
      {"measurement": "IC50", "result": 0.026, "unit": "µM"}
    ]},
    {"compound": "CCc1ccc(NC(=O)N2CCC[C@@H]2C(=O)Nc2ccc(-c3ccc(C(=O)O)cc3)cc2)cc1", "note": "[Example 118, 4′-({1-[(4-ethylphenyl)carbamoyl]-D-prolyl}amino)[1,1′-biphenyl]-4-carboxylic acid]", "values": [
      {"measurement": "IC50", "result": 0.015, "unit": "µM"}
    ]},
    {"compound": "CC(C)(C)c1ccc(NC(=O)N2CCC[C@@H]2C(=O)Nc2ccc(-c3ccc(C(=O)O)cc3)cc2)cc1", "note": "[Example 119, 4′-({1-[(4-tert-butylphenyl)carbamoyl]-D-prolyl}amino)[1,1′-biphenyl]-4-carboxylic acid]", "values": [
      {"measurement": "IC50", "result": 0.024, "unit": "µM"}
    ]},
    {"compound": "COc1nc(C(=O)O)ccc1-c1ccc(NC(=O)[C@H]2CCCN2C(=O)Nc2ccc(C(C)C)cc2)cc1", "note": "[Example 120, 6-methoxy-5-{4-[(1-{[4-(propan-2-yl)phenyl]carbamoyl}-D-prolyl)amino]phenyl}pyridine-2-carboxylic acid]", "values": [
      {"measurement": "IC50", "result": 0.026, "unit": "µM"}
    ]},
    {"compound": "CC(C)c1ccc(NC(=O)N2CCC[C@@H]2C(=O)Nc2cnc(-c3ccc(C(=O)O)cc3)cn2)cc1", "note": "[Example 121, 4-{5-[(1-{[4-(propan-2-yl)phenyl]carbamoyl}-D-prolyl)amino]pyrazin-2-yl}benzoic acid]", "values": [
      {"measurement": "IC50", "result": 0.027, "unit": "µM"}
    ]}
  ]
}
